{"source": "patent US20240299345A1", "about": "“GINKGOLIDE B AND ITS DERIVATIVES FOR INHIBITING AND/OR REVERSING AGING” (CHINA MEDICAL UNIVERSITY, priority 2023, published 2024)", "key": {"[1]": {"system": "20-month-old aged female C57BL/6 mice", "assay": "Aging-related skeletal muscle wasting in aged mice", "format": "in vivo, mouse", "procedure": "RIPA buffer (#ab156034, Abcam) containing 1X protease/phosphatase inhibitor (#1861281, Thermo Fisher Scientific) was used to lyse samples. Protein content was measured by BCA Protein Assay Kit (#23225, Thermo Fisher Scientific). Samples were loaded and separated in polyacrylamide gels and then transferred to PVDF membranes (#IPVH00010, Merck Millipore, Massachusetts, USA). The membranes were incubated with 5% BSA at room temperature for one hour and then incubated with primary antibodies overnight at 4° C., and then incubated with HRP-conjugated secondary antibodies (#SA00001-1, #SA100002-1, Proteintech, Rosemont, IL, USA) for one hour at room temperature. Signals were detected by the chemiluminescent substrate (#34095, Thermo Fisher Scientific) and were acquired by the ChemiDoc MP imaging system (Bio-Rad, Hercules, CA, USA).\n(§1) Serum was collected by cardiac puncture upon sacrifice.\n(§2) RNAs were purified by using the TRIzol® (#15596018, Invitrogen) and chloroform method (#C7559, Sigma-Aldrich) and reversed transcribed using High-Capacity cDNA Reverse Transcription Kit (#4368814, Applied Biosystems, Foster City, CA, USA). The quantitative RT-PCR was conducted with universal probe system (Roche Life Science, Indianapolis, IN, USA) by using a QuantStudio™ 7 Flex Real-Time PCR System (Applied Biosystems) and was normalized by the expression of GAPDH.\nTo investigate whether GB improves healthspan, we administered GB to 20-month-old aged mice, equivalent to 70-80-year-old humans, which is more relevant to potential clinical applications than intervention starting from young adulthood (Wang, S., Lai, X., Deng, Y. & Song, Y. Correlation between mouse age and human age in anti-tumor research: Significance and method establishment. Life Sci 242, 117242, doi: 10.1016/j.lfs.2019.117242 (2020)). After GB administration for two months, we assessed the healthspan domains in terms of sarcopenia, physical activity, metabolic health, frailty index, and inflammation (FIG. 2A) according to the criteria in clinical practice (Shamliyan, T., Talley, K. M., Ramakrishnan, R. & Kane, R. L. Association of frailty with survival: a systematic literature review. Ageing Res Rev 12, 719-736, doi: 10.1016/j.arr.2012.03.001 (2013)). As expected, circulating osteocalcin levels were decreased in aged mice, while GB administration increased osteocalcin levels (FIG. 2B, p<0.0001) toward the levels of those in young mice. […] In line with muscle loss, aging led to a decreased in total protein content (FIG. 2H, p<0.0001) in skeletal muscle with upregulation of muscle atrophy markers, Fbxo32 and Trim63, at transcript (FIG. 2K, p<0.0001 and=0.0005, respectively) and protein levels. (FIG. 2L, p=0.0182 and 0.0003, respectively). […] GB reversed the infiltration of adipose-like tissues by aging (FIGS. 2D and 2G, p=0.0012). […] GB administration reversed aging-related muscle wasting (FIG. 2K)."}, "[2]": {"system": "20-month-old aged female C57BL/6 mice", "assay": "Metabolic health in aged mice (body weight, composition, intake, lipids, IPGTT, IPITT, gene expression)", "format": "in vivo, mouse", "procedure": "For the food and water intake measurement, mice were divided into individual animal cages individually for 3 days for stabilizing the animals, and then daily consumption was recorded. The values were calculated by adjusting for body weight.\nBody composition was measured by Minispec LF50 TD-NMR (Bruker, MA, USA) based on nuclear magnetic resonance methods. Briefly, mice were anesthetized for the duration of the procedure by 3% isoflurane (Zoctis, London, UK) and placed in the scanning chamber in the prone position, with the limbs and tail stretched away from the body. The analysis would be conducted by default software per manufacturer's protocol. The vascular networks […] were quantified by in vivo micro-computed tomography (U-CT, Milabs, Netherlands). Briefly, mice intravenously received 150 μL ExiTron™ nano 12000 (#130-095-698, Miltonic Biotec GmbH, Bergisch Gladbach, Germany), and then mice were anesthetized with isoflurane before being positioned on the scanning chamber. After scanning, the blood vessels were analyzed by a curved multiplanar reconstruction algorithm by using Osirix software (Bernex, Switzerland).\nMice fasted 16 hours and 2 hours before performing an IPGT test and IPIT test, respectively. IPGTT was performed by intraperitoneal injection of fasted mice with 1% body weight of sterile glucose/PBS (20% weight/volume). IPITT was performed by intraperitoneal injection of fasted mice with insulin (0.75 unit/kg body weight) (#12585014, Gibco). Blood glucose levels were measured at indicative timepoints after injection by a blood glucometer (countour plus, Ascensia Diabetes Care, Hong Kong).\nas §1, §2"}, "[3]": {"system": "20-month-old aged female C57BL/6 mice", "quoted_text": "Animals were kept up to five per cage and were randomly assigned to control and experimental groups in all experiments. […] For the short-term experiment, 3-(young), 6-(adult) and 20-month-old (aged) female C57BL/6 mice were administered 12 mg/kg body weight GB (#G6910, Sigma-Aldrich, St. Louis, MO, USA) or vehicle daily by oral gavage for two months.\nThe noninvasive 31-item frailty index established by Whitehead et al. was used to evaluate frailty in mice (Whitehead, J. C. et al. A clinical frailty index in aging mice: comparisons with frailty index data in humans. J Gerontol A Biol Sci Med Sci 69, 621-632, doi:10.1093/gerona/glt136 (2014)). Whole assessments were conducted by blind investigators as possible. The scored items represent the aging-related deteriorations based on the criteria in clinical practice, consisting of the integument, musculoskeletal system, vestibulocochlear and auditory systems, ocular and nasal systems, digestive system, urogenital system, respiratory system, signs of discomfort, body weight and body surface temperature. Surface body temperature was determined by an infrared thermometer (Thermo Distance, Terraillon, Croissy-sur-seine, France), and grip strength was measured by the standard equipment described in the later section. The other subjective observations were scored by researchers. The scores 0, 0.5 and 1 indicated no sign of frailty, moderate defect and severe defect, respectively. For the body temperature, grip strength and body weight scoring, the average and standard deviation (STDEV) values were used as a baseline. A change within one STDEV is scored as a 0, a decreased change over one STDEV but lower than two STDEV was scored as a 0.5 and a change more than two STDEV was scored as a 1."}, "[4]": {"system": "kidney, heart, spleen and liver in aged mice", "details": "mouse, in vivo", "quoted_text": "All animals were purchased from Laboratory Animal Services Centre, the Chinese University of Hong Kong, ad libitum fed the standard diet (#5V0f, LabDiet, St. Louis, MO, USA), and housed at specific-pathogen-free and humidity-controlled conditions under a 12 light: 12 dark photoperiod with temperature at 20-22° C. Animals were kept up to five per cage and were randomly assigned to control and experimental groups in all experiments. […] For the short-term experiment, 3-(young), 6-(adult) and 20-month-old (aged) female C57BL/6 mice were administered 12 mg/kg body weight GB (#G6910, Sigma-Aldrich, St. Louis, MO, USA) or vehicle daily by oral gavage for two months. […] GB was diluted to the appropriate concentration in 100 μL of sterile PBS (#10378016, Gibco, Waltham, MA, USA).\nTissue samples were harvested and embedded in paraffin or in OCT (#4583, Sakura Finetek USA, Torrance, CA, USA). For paraffin-embedded samples, 10 μm sections were deparaffinized by xylene and alcohol gradient treatment and were then hydrated by distilled water and processed for heat-induced antigen retrieval with antigen retrieval solution at 70° C. for 1.5 hours before staining. For OCT-embedded samples, 10 μm sections were hydrated by distilled water before staining. Hematoxylin and cosin staining (#MHS16 and #HT110116 Sigma-Aldrich), oil red O staining (#00625, Sigma-Aldrich), and Masson's trichrome staining (#HT15, Sigma-Aldrich) were used to assess the histology, lipid droplet, and collagen deposition. For immunohistochemical staining, antigen-retrieval samples were blocked with 5% bovine serum albumin (BSA) (#A9647, Sigma-Aldrich) for 1 hour at room temperature and incubated with primary antibodies overnight at 4° C., followed by a ready-to-use IHC/ICC Kit (#K405, BioVision, Milpitas, CA, USA) at room temperature. The samples were then suspended with double-distilled water and then stained with hematoxylin. For immunocytochemical staining, samples were blocked with 5% BSA (Sigma-Aldrich) for 1 hour at room temperature and incubated with primary antibodies overnight at 4° C., then washed with PBS for ten minutes, and then incubated with secondary antibody for 1 hour at room temperature, then washed with PBS three times for ten minutes."}, "[5]": {"details": "aged mice, GB 2 months, p<0.0001"}, "[6]": {"details": "among the three groups (young, vehicle-aged, GB-aged)"}, "[7]": {"details": "of 18 measurements increased by aging"}}, "data": [{"compound": "CC1C(=O)OC2C(O)C34C5CC(C(C)(C)C)C36C(OC(=O)C6O)OC4(C(=O)O5)C12O", "note": "(stereo not shown) [GB, Ginkgolide B]", "values": [{"measurement": "circulating osteocalcin levels", "setting": "[1]; aged (20-month-old) female mice, GB 12 mg/kg daily oral 2 months vs vehicle-aged, p<0.0001", "result": "increased"}, {"measurement": "skeletal muscle-to-body ratio", "setting": "[1]; aged mice, GB 12 mg/kg daily oral 2 months vs vehicle-aged", "result": "significantly increased"}, {"measurement": "infiltration of adipose-like tissues by aging", "setting": "[1]; aged mice, GB 12 mg/kg daily oral 2 months, p=0.0012", "result": "reversed"}, {"measurement": "myofiber CSA", "setting": "[1]; aged mice, quadriceps, GB 12 mg/kg daily oral 2 months vs vehicle-aged, p=0.0032", "result": "significantly increased"}, {"measurement": "total protein content in aged skeletal muscle", "setting": "[1]; gastrocnemius, aged mice, GB 12 mg/kg daily oral 2 months, p<0.0001", "result": "increased"}, {"measurement": "expression level of Trim63 (mRNA and protein)", "setting": "[1]; gastrocnemius, aged mice, GB 2 months, p=0.0039 and 0.0003", "result": "significant downregulation"}, {"measurement": "expression level of Fbxo32 (mRNA and protein)", "setting": "[1]; gastrocnemius, aged mice, GB 2 months, p=0.0078 and 0.0182", "result": "significant downregulation"}, {"measurement": "food and water consumptions", "setting": "[2]; aged mice, GB 2 months vs vehicle, p=0.5127 and 0.9368", "result": "not improved"}, {"measurement": "lean mass", "setting": "[2]; [5]", "result": "increase"}, {"measurement": "whole-body fat mass", "setting": "[2]; [5]", "result": "decrease"}, {"measurement": "expression of Pkm in aged skeletal muscle", "setting": "[2]; aged mice, GB 2 months, p<0.0001, not in aged liver", "result": "restored"}, {"measurement": "expression of Glut4 in aged skeletal muscle", "setting": "[2]; aged mice, GB 2 months, p=0.0035, not in aged liver", "result": "restored"}, {"measurement": "aging-related alteration in serum total cholesterol level", "setting": "[2]; aged mice, GB 2 months, p=0.0284", "result": "reversed"}, {"measurement": "aging-related glucose intolerance (IPGTT)", "setting": "[2]; aged mice, GB 2 months, p=0.0322 in AUC", "result": "improved"}, {"measurement": "aging-related alteration in serum triglyceride level", "setting": "[2]; aged mice, GB 2 months, p=0.0424", "result": "reversed"}, {"measurement": "body weight reduction", "setting": "[2]; aged mice, post-GB administration 2 months, p=0.0123", "result": 6, "unit": "%"}, {"measurement": "fasting blood glucose", "setting": "[2]; [6]", "result": "no significant difference"}, {"measurement": "insulin sensitivity (IPITT)", "setting": "[2]; [6]", "result": "no difference"}, {"measurement": "reduction of aging-related frailty index score", "setting": "[3]; aged mice, GB 2 months vs vehicle-aged, p<0.0001", "result": 63.1, "unit": "%"}, {"measurement": "average frailty index score", "setting": "[3]; aged mice, GB 2 months, mean±SD, vehicle-aged 0.43±0.13, young 0.01±0.01", "result": "0.16±0.05"}, {"measurement": "deterioration of frailty", "setting": "[3]; mouse, in vivo", "result": "did not observe any deterioration"}, {"measurement": "number of aging-related frailty measurements modestly attenuated", "setting": "[3]; [7]", "result": 3}, {"measurement": "number of aging-related frailty measurements reversed", "setting": "[3]; [7]", "result": 13}, {"measurement": "circulating GOT, GPT and UA", "setting": "[4]", "result": "reduction"}, {"measurement": "liver and spleen size", "setting": "[4]", "result": "no effect"}]}]}
